Experiment: xn = mol fraction of the nth substance listed
Conditions: 85 kPa, Liquid; for viscosity: Concentric cylinders viscometry; for mass density: Vibrating tube method

CCC(C)O (centres undefined) [butan-2-ol] + CCCO
Conditions	mass density [kg/m3]	viscosity [mPa·s]
293.15 K, x1 = 0.0818	804.1	2.323
293.15 K, x1 = 0.1601	804.6	2.428
293.15 K, x1 = 0.2399	805	2.54
293.15 K, x1 = 0.3499	805.5	2.702
293.15 K, x1 = 0.4399	805.8	2.838
293.15 K, x1 = 0.56	806	3.023
293.15 K, x1 = 0.6515	806.1	3.166
293.15 K, x1 = 0.7385	806.2	3.304
293.15 K, x1 = 0.85	806.3	3.486
293.15 K, x1 = 0.9407	806.3	3.639
293.15 K, x1 = 1	806.2	3.743
298.15 K, x1 = 0.0818	800.1	2.047
298.15 K, x1 = 0.1601	800.6	2.126
298.15 K, x1 = 0.2399	801	2.211
298.15 K, x1 = 0.3499	801.5	2.331
298.15 K, x1 = 0.4399	801.8	2.432
298.15 K, x1 = 0.56	802	2.57
298.15 K, x1 = 0.6515	802.1	2.676
298.15 K, x1 = 0.7385	802.2	2.778
298.15 K, x1 = 0.85	802.2	2.913
298.15 K, x1 = 0.9407	802.1	3.025
298.15 K, x1 = 1	802	3.101
303.15 K, x1 = 0.0818	796.1	1.824
303.15 K, x1 = 0.1601	796.7	1.893
303.15 K, x1 = 0.2399	797.1	1.962
303.15 K, x1 = 0.3499	797.6	2.057
303.15 K, x1 = 0.4399	797.9	2.134
303.15 K, x1 = 0.56	798.1	2.228
303.15 K, x1 = 0.6515	798.2	2.31
303.15 K, x1 = 0.7385	798.2	2.38
303.15 K, x1 = 0.85	798.2	2.466
303.15 K, x1 = 0.9407	798.1	2.536
303.15 K, x1 = 1	797.9	2.579
308.15 K, x1 = 0.0818	792.1	1.619
308.15 K, x1 = 0.1601	792.7	1.672
308.15 K, x1 = 0.2399	793.1	1.724
308.15 K, x1 = 0.3499	793.6	1.795
308.15 K, x1 = 0.4399	793.8	1.851
308.15 K, x1 = 0.56	794	1.925
308.15 K, x1 = 0.6515	794.1	1.98
308.15 K, x1 = 0.7385	794.1	2.03
308.15 K, x1 = 0.85	794	2.089
308.15 K, x1 = 0.9407	793.8	2.135
308.15 K, x1 = 1	793.6	2.162
313.15 K, x1 = 0.0818	788.1	1.444
313.15 K, x1 = 0.1601	788.7	1.485
313.15 K, x1 = 0.2399	789.1	1.525
313.15 K, x1 = 0.3499	789.6	1.58
313.15 K, x1 = 0.4399	789.8	1.622
313.15 K, x1 = 0.56	789.9	1.676
313.15 K, x1 = 0.6515	789.9	1.713
313.15 K, x1 = 0.7385	789.8	1.747
313.15 K, x1 = 0.85	789.7	1.786
313.15 K, x1 = 0.9407	789.5	1.814
313.15 K, x1 = 1	789.2	1.828
318.15 K, x1 = 0.0818	784	1.293
318.15 K, x1 = 0.1601	784.6	1.326
318.15 K, x1 = 0.2399	785.1	1.358
318.15 K, x1 = 0.3499	785.5	1.398
318.15 K, x1 = 0.4399	785.7	1.429
318.15 K, x1 = 0.56	785.8	1.467
318.15 K, x1 = 0.6515	785.7	1.493
318.15 K, x1 = 0.7385	785.6	1.516
318.15 K, x1 = 0.85	785.3	1.54
318.15 K, x1 = 0.9407	785.1	1.555
318.15 K, x1 = 1	784.7	1.559
323.15 K, x1 = 0.0818	779.9	1.16
323.15 K, x1 = 0.1601	780.5	1.185
323.15 K, x1 = 0.2399	781	1.209
323.15 K, x1 = 0.3499	781.4	1.24
323.15 K, x1 = 0.4399	781.5	1.263
323.15 K, x1 = 0.56	781.5	1.29
323.15 K, x1 = 0.6515	781.4	1.308
323.15 K, x1 = 0.7385	781.3	1.322
323.15 K, x1 = 0.85	781	1.336
323.15 K, x1 = 0.9407	780.6	1.341
323.15 K, x1 = 1	780.2	1.318

Source: the NIST ThermoML archive (doi:10.1021/acs.jced.8b01097)
